Laboratory results: patent publication US20220195059A1, “Rank Pathway Inhibitors in Combination with CDK Inhibitors” (INSTITUTO DE MEDICINA MOLECULAR JOÃO LOBO ANTUNES, priority 2019, published 2022)

What was measured:
[1] = system: MDA-MB-231 xenografts; test: TNBC ectopic xenograft model; type: in vivo, NSG mice; details: Palbociclib 30 mg/Kg/day p.o., 21 days; xenografts not regressed
Method: Based on these findings TNBC BC sensitivity to CDK4/6 inhibitors (palbociclib) in combination with RANK pathway blockage was tested in a TNBC ectopicxenograft model (FIG. 27). Nod scid gama (NSG) mice were inoculated subcutaneously and bilaterally in the flanks (n=5/group). Tumors were measured with caliper. When tumors reach approximately 100 mm^3 mice were randomized based on tumor size and treated according to the experimental protocol. Palbociclib was used at 30 mg/Kg/day for 21 consecutive days, as the human equivalent dose (HED) of 125 mg/day approved for palbociclib is equivalent to […] in mice (Nair and Jacob, J Basic Clin Pharm. 2016 March; 7(2):27-31). OPG-Fc was used at 10 mg/Kg 3×/week (HED 291.6 mg/15 days).
Nod scid gama (NSG) mice were inoculated subcutaneously and bilaterally in the flanks with MDA-MB-231 cells (n=4-5/group). Six weeks post inoculation mice were randomized based on tumor size and treated with OPG-Fc 10 mg/Kg i.p. 3× per week; Palbociclib 30 mg/Kg/day p.o. or the combination. […] The data are presented as mean±SEM. p-value was calculated using ANOVA, *p<0.05, **p<0.01, ***p<0.001.
Tumor growth was monitored every two days with caliper and tumor volume calculated using the formula Tvol=½(length×width^2). […]
TRAcP 5b was quantified in mouse serum using the MouseTRAP (TRAcP 5b) ELISA kit (IDS), according to the manufacturer instructions.

[2] = system: RANK OE cells (MCF-7^OE, T47D^OE) and parental MCF-7, T47D cells; test: Alamar blue viability assay, RANK OE luminal breast cancer cells vs parental counterparts; type: cell-based, human; details: RANK OE cells vs parental counterparts; drug alone; 7 days
Method: Cells were seeded in 96 well-plates (2-5×10^4 cells/mL), with or without paclitaxel (Y0000698, Sigma), doxorubicin hydrochloride (D2975000, Sigma), palbociclib (PD 0332991 isethionate, PZ0199, Sigma), ribociclib (LEE011 succinate, SC-488174, Santa Cruz), abemaciclib mesylate (LY2835219, S7158, Selleckchem), fulvestrant (S1191, Selleckchem), everolimus (#73122, StemCell Technologies), full length human OPG (SRP3132, Sigma), and OPG-Fc (Amgen). Medium was replaced every 2 days. After 7 days, 1:10 Alamar blue (Invitrogen) was added to each well and fluorescence was measured 2 hours after incubation (excitation 560 nm; emission 590 nm) in an Infinite M200 microplate reader (Tecan).
In particular, RANK OE cells were tested for responsiveness to hormone therapy. Briefly, RANK OE cells were seeded in multi-well plates and exposed to fulvestrant for 7 days.
In this assay, however, RANK OE cells were exposed to a CDK 4/6 inhibitor alone or in combination with an inhibitor of the RANK pathway, in order to test the effect of blocking the RANK pathway in this context. Briefly, RANK OE cells were seeded in multi-well plates and exposed to palbociclib, ribociclib or abemaciclib alone or in combination with OPG-Fc for 7 days. Osteoprotegrin (OPG) is the physiologic soluble decoy receptor for RANK ligand (RANKL), and OPG-Fc is a fusion protein comprising only the four cysteine-rich domains of OPG (D1 to D4) fused with the Fc domain of an IgG1 antibody.
In this study, the CDK4/6 inhibitors palbociclib and ribociclib were exposed to RANK OE cells in combination with fulvestrant or everolimus. This combination therapy was then tested alone or in combination with OPG, an inhibitor of the RANK pathway. In this assay, the full-length OPG protein was used, in contrast to the previous example utilizing OPG-Fc.
To address this question, cell growth in the presence or absence of a CDK4 inhibitor was quantified. Briefly, cells were seeded in 96-well plates and exposed to two different drugs, CDK4 inhibitors, 3-ATA (FIG. 20A) or Cdk4 inhibitor Ill (FIG. 20B) for seven days. Medium was replaced every two days, and viability was assessed by Alamar blue assay. FIG. 20A provides the cell growth quantification in the presence of the CDK4 inhibitor 3-ATA and FIG. 20B provides the cell growth quantification in the presence of another CDK4 inhibitor, Cdk4 Inhibitor Ill. The results are the mean of at least three independent assays, with 4 replicates per assay, and presented as the mean±SEM. p-value was calculated using 2-way ANOVA, *p<0.05, **p<0.01, ***p<0.001.
To answer this question, cell growth in the presence of the pan-CDK inhibitor seliciclib (also known as roscovitine or CYC202) was analyzed. Briefly, cells were seeded in 96-well plates and exposed to different drugs for seven days. Medium was replaced every two days, and viability was assessed by Alamar blue assay.
Cells were seeded in 96 well-plates (2-5×10^4 cells/mL), with or without palbociclib (PD 0332991 isethionate, PZ0199, Sigma), ribociclib (LEE011 succinate, SC-488174, Santa Cruz), abemaciclib mesylate (LY2835219, S7158, Selleckchem), 3-ATA (sc-202414, Santa Cruz), Cdk4 inhibitor Ill (sc-202988, Santa Cruz), seliciclib (S1153, Selleckchem), and OPG-Fc (PL-33324, Amgen). Medium was replaced every 2 days. After 7 days, 1:10 Alamar blue (Invitrogen) was added to each well and fluorescence was measured 2 hours after incubation (excitation 560 nm; emission 590 nm) in an Infinite M200 microplate reader (Tecan).

## CC(=O)c1c(C)c2cnc(Nc3ccc(N4CCNCC4)cn3)nc2n(C2CCCC2)c1=O [palbociclib]
[1]
  tumor growth (tumor volume): slowing of tumor growth
[2]
  sensitivity of RANK OE cells to the drug (cell viability): decreased sensitivity
